What was measured:
[1] = Solubility of compound in pH 7.4 PBS buffer by shake-flask method; format: physicochemical
[2] = Solubility of compound at >=50 uM; format: physicochemical
[3] = target: T1, Macrophage migration inhibitory factor (Homo sapiens, UniProt P14174); test: (§1) Inhibition of C-terminal His-tagged recombinant human MIF tautomerase activity expressed in Escherichia coli BL21 using 4-hydroxyphenyl pyruvic acid as substrate preincubated for 15 mins followed by substrate addition and measured for 10 mins in presence of 0.5 mM EDTA by UV absorbance based Cheng-Prusoff equation analysis
T1 sequence (P14174 whole entry): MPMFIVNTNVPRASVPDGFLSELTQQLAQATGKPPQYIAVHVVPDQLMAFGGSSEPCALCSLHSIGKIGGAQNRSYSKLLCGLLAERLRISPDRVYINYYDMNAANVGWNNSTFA

[4] = target: T1, Macrophage migration inhibitory factor; test: Inhibition of C-terminal His-tagged recombinant human MIF tautomerase activity expressed in Escherichia coli BL21 using 4-hydroxyphenyl pyruvic acid as substrate preincubated for 15 mins followed by substrate addition and measured for 10 mins in presence of 0.5 mM EDTA by UV absorbance analysis
[5] = target: T1, Macrophage migration inhibitory factor; test: Binding affinity to RED-Tris-NTA-labelled C-terminal His-tagged recombinant human MIF tautomerase activity expressed in Escherichia coli BL21 by microscale thermophoresis assay
[6] = target: T1, Macrophage migration inhibitory factor; test: as §1, with “absence” for “presence”, “of” for “of 0.5 mM”
[7] = target: T1, Macrophage migration inhibitory factor; test: Inhibition of recombinant human MIF tautomerase activity expressed in Escherichia coli using 4-hydroxyphenyl pyruvic acid as substrate preincubated for 30 mins followed by substrate addition and measured for 175 secs

SMILES	Ki [3] [µM]	IC50 [4] [µM]	also measured
Oc1ccc(-n2cc(-c3ccc4ccccc4n3)nn2)cc1	–	–	solubility thermodynamic [1]: 2.2 µg/mL
O=C(NCc1cn(-c2ccc(O)c(F)c2)nn1)c1cc2cc(Cl)ccc2[nH]1	0.96	–	solubility thermodynamic [1]: 28 µM; solubility [2]: Insoluble
O=C(NCc1cn(-c2ccc(O)cc2)nn1)c1ccc[nH]1	30	43	–
O=C(NCc1cn(-c2ccc(O)c(F)c2)nn1)c1cc2ccccc2[nH]1	3.3	4.8	Kd [5]: 3.63 µM; solubility thermodynamic [1]: 41.4 µM
C#CCCCCc1cn(-c2ccc(O)cc2)nn1	6.5	9.5	–
COC(=O)CCCc1cn(-c2ccc(O)cc2)nn1	23	33	–
CCCCCc1cn(-c2ccc(O)cc2)nn1	6.9	10	–
Oc1ccc(-n2cc(C3CCCCC3)nn2)cc1	17	26	–
O=C(NCc1cn(-c2ccc(O)cc2)nn1)c1ccc(Br)o1	26	38	–
O=C(NCc1cn(-c2ccc(O)cc2)nn1)c1cccs1	28	41	–
Cc1ccc(C(=O)NCc2cn(-c3ccc(O)cc3)nn2)s1	19	28	–

The next lines start with results.

Ki [3] [µM]	IC50 [4] [µM]	SMILES	also measured
36	53	O=C(NCc1cn(-c2ccc(O)cc2)nn1)c1ccc(F)cc1	–
43	62	O=C(Cc1cc2ccccc2[nH]1)NCc1cn(-c2ccc(O)cc2)nn1	–
5	7.2	Oc1ccc(-n2cc(-c3ccccn3)nn2)cc1	Ki [6]: 2.9 µM; Ki [7]: 8.8 µM
6.9	10	O=C(NCc1cn(-c2ccc(O)cc2)nn1)c1cc2ccccc2[nH]1	–
23	33	O=C(NCc1cn(-c2ccc(O)cc2)nn1)c1ccccc1	–
32	47	O=C(CCc1cn(-c2ccc(O)cc2)nn1)Nc1ccccc1	–
